Experiments:
Type in all cases: cell-based
NCI-H23 = assay: NCI 60 cell line screen (SRB), Non-Small Cell Lung Cancer
MDA-MB231/ATCC = assay: NCI 60 cell line screen (SRB), Breast Cancer
OVCAR-5 = assay: NCI 60 cell line screen (SRB), Ovarian Cancer; conditions: OVCAR-5 (Ovarian Cancer)
SF-295 = assay: NCI 60 cell line screen (SRB), CNS Cancer; conditions: SF-295 (CNS Cancer)
K-562 = assay: NCI 60 cell line screen (SRB), Leukemia; conditions: K-562 (Leukemia)
SW-620 = assay: NCI 60 cell line screen (SRB), Colon Cancer; conditions: SW-620 (Colon Cancer)
SF-539 = assay: NCI 60 cell line screen (SRB), CNS Cancer; conditions: SF-539 (CNS Cancer)
NCI-H460 = assay: NCI 60 cell line screen (SRB), Non-Small Cell Lung Cancer
RPMI-8226 = assay: NCI 60 cell line screen (SRB), Leukemia; conditions: RPMI-8226 (Leukemia)
IGROVI = assay: NCI 60 cell line screen (SRB), Ovarian Cancer
BT-549 = assay: NCI 60 cell line screen (SRB), Breast Cancer; conditions: BT-549 (Breast Cancer)
HOP-62 = assay: NCI 60 cell line screen (SRB), Non-Small Cell Lung Cancer; conditions: HOP-62 (Non-Small Cell Lung Cancer)
HCT-116 = assay: NCI 60 cell line screen (SRB), Colon Cancer; conditions: HCT-116 (Colon Cancer)
PC-3 = assay: NCI 60 cell line screen (SRB), Prostate Cancer; conditions: PC-3 (Prostate Cancer)
SK-MEL-28 = assay: NCI 60 cell line screen (SRB), Melanoma; conditions: SK-MEL-28 (Melanoma)
MCF7 = assay: NCI 60 cell line screen (SRB), Breast Cancer
60 cell line panel = assay: NCI 60 cell line screen, values over the whole panel; conditions: mean value over the cell line panel
SR = assay: NCI 60 cell line screen (SRB), Leukemia
MALME-3M = assay: NCI 60 cell line screen (SRB), Melanoma; conditions: MALME-3M (Melanoma)
SF-268 = assay: NCI 60 cell line screen (SRB), CNS Cancer; conditions: SF-268 (CNS Cancer)
MDA-MB-435 = assay: NCI 60 cell line screen (SRB), Breast Cancer; conditions: MDA-MB-435 (Breast Cancer)
OVCAR-8 = assay: NCI 60 cell line screen (SRB), Ovarian Cancer; conditions: OVCAR-8 (Ovarian Cancer)
LOX IMVI = assay: NCI 60 cell line screen (SRB), Melanoma
OVCAR-3 = assay: NCI 60 cell line screen (SRB), Ovarian Cancer; conditions: OVCAR-3 (Ovarian Cancer)
CAKI-1 = assay: NCI 60 cell line screen (SRB), Renal Cancer; conditions: CAKI-1 (Renal Cancer)
UACC-62 = assay: NCI 60 cell line screen (SRB), Melanoma; conditions: UACC-62 (Melanoma)
ACHN = assay: NCI 60 cell line screen (SRB), Renal Cancer
MCF7/ADR-RES = assay: NCI 60 cell line screen (SRB), Breast Cancer
SK-OV-3 = assay: NCI 60 cell line screen (SRB), Ovarian Cancer; conditions: SK-OV-3 (Ovarian Cancer)
NCI-H226 = assay: NCI 60 cell line screen (SRB), Non-Small Cell Lung Cancer
UO-31 = assay: NCI 60 cell line screen (SRB), Renal Cancer; conditions: UO-31 (Renal Cancer)
MOLT-4 = assay: NCI 60 cell line screen (SRB), Leukemia; conditions: MOLT-4 (Leukemia)

COC1OC2(C)CCC3CCCC(CCOC(=O)c4ccc(C(=O)OCCC5CCCC6CCC7(C)OOC56C(OC)O7)cc4)C31OO2 (centres unmarked) [Compound 11, Bis-ester Dimer]
Log10GI50 (NCI-H23): −6.03 M | Log10LC50 (NCI-H23): >−4.00 M | Log10TGI (NCI-H23): −4.19 M | Log10GI50 (MDA-MB231/ATCC): −5.18 M | Log10LC50 (MDA-MB231/ATCC): >−4.00 M | Log10TGI (MDA-MB231/ATCC): >−4.00 M | Log10GI50 (OVCAR-5): −5.45 M | Log10LC50 (OVCAR-5): >−4.00 M | Log10TGI (OVCAR-5): >−4.00 M | Log10GI50 (SF-295): −5.49 M | Log10LC50 (SF-295): >−4.00 M | Log10TGI (SF-295): >−4.00 M | Log10GI50 (K-562): −6.57 M | Log10LC50 (K-562): >−4.00 M | Log10TGI (K-562): >−4.00 M | Log10GI50 (SW-620): −6.12 M | Log10LC50 (SW-620): >−4.00 M | Log10TGI (SW-620): >−4.00 M | Log10LC50 (SF-539): >−4.00 M | Log10GI50 (NCI-H460): −6.02 M | Log10LC50 (NCI-H460): >−4.00 M | Log10TGI (NCI-H460): >−4.00 M | Log10GI50 (RPMI-8226): −6.33 M | Log10LC50 (RPMI-8226): >−4.00 M | Log10TGI (RPMI-8226): −5.10 M | Log10GI50 (IGROVI): −4.95 M | Log10LC50 (IGROVI): >−4.00 M | Log10TGI (IGROVI): >−4.00 M | Log10GI50 (BT-549): −5.44 M | Log10LC50 (BT-549): >−4.00 M | Log10TGI (BT-549): >−4.00 M | Log10GI50 (HOP-62): −5.01 M | Log10LC50 (HOP-62): >−4.00 M | Log10TGI (HOP-62): >−4.00 M | Log10GI50 (HCT-116): −6.30 M | Log10LC50 (HCT-116): >−4.00 M | Log10TGI (HCT-116): >−4.00 M | Log10GI50 (PC-3): −6.51 M | Log10LC50 (PC-3): >−4.00 M | Log10TGI (PC-3): >−4.00 M | Log10GI50 (SK-MEL-28): −4.31 M | Log10LC50 (SK-MEL-28): >−4.00 M | Log10TGI (SK-MEL-28): >−4.00 M | Log10GI50 (MCF7): −5.86 M | Log10LC50 (MCF7): >−4.00 M | Log10TGI (MCF7): >−4.00 M | Log10GI50 MG MID (60 cell line panel): −5.59 M | Log10LC50 MG MID (60 cell line panel): −4.04 M | Log10TGI MG MID (60 cell line panel): −4.19 M | Log10GI50 (SR): −6.38 M | Log10LC50 (SR): >−4.00 M | Log10TGI (SR): −5.17 M | Log10GI50 (MALME-3M): −5.03 M | Log10LC50 (MALME-3M): >−4.00 M | Log10TGI (MALME-3M): >−4.00 M | Log10GI50 (SF-268): −5.14 M | Log10LC50 (SF-268): >−4.00 M | Log10TGI (SF-268): >−4.00 M | Log10GI50 (MDA-MB-435): −5.69 M | Log10LC50 (MDA-MB-435): >−4.00 M | Log10TGI (MDA-MB-435): −4.63 M | Log10GI50 (OVCAR-8): −6.03 M | Log10LC50 (OVCAR-8): >−4.00 M | Log10TGI (OVCAR-8): >−4.00 M | Log10GI50 (LOX IMVI): −6.28 M | Log10LC50 (LOX IMVI): >−4.00 M | Log10TGI (LOX IMVI): >−4.00 M | Log10GI50 (OVCAR-3): −5.63 M | Log10LC50 (OVCAR-3): >−4.00 M | Log10TGI (OVCAR-3): >−4.00 M | Log10GI50 (CAKI-1): −4.99 M | Log10LC50 (CAKI-1): >−4.00 M | Log10TGI (CAKI-1): >−4.00 M | Log10GI50 (UACC-62): −5.87 M | Log10LC50 (UACC-62): >−4.00 M | Log10TGI (UACC-62): >−4.00 M | Log10GI50 (ACHN): −5.42 M | Log10LC50 (ACHN): >−4.00 M | Log10TGI (ACHN): >−4.00 M | Log10GI50 (MCF7/ADR-RES): −5.11 M | Log10LC50 (MCF7/ADR-RES): >−4.00 M | Log10TGI (MCF7/ADR-RES): >−4.00 M | Log10GI50 (SK-OV-3): −5.28 M | Log10LC50 (SK-OV-3): >−4.00 M | Log10TGI (SK-OV-3): >−4.00 M | Log10GI50 (NCI-H226): −5.26 M | Log10LC50 (NCI-H226): >−4.00 M | Log10TGI (NCI-H226): >−4.00 M | Log10GI50 (UO-31): −5.63 M | Log10LC50 (UO-31): >−4.00 M | Log10TGI (UO-31): >−4.00 M | Log10GI50 (MOLT-4): −6.67 M | Log10LC50 (MOLT-4): >−4.00 M | Log10TGI (MOLT-4; listed as Terephtalate Dimer): −4.70 M | Log10TGI (MOLT-4; listed as terephthalate dimer): 6.20 M
